# Measured values from patent publication US20150030593A1, “COMPOSITIONS OF PENETRATION-ENHANCED TARGETING PROTEINS AND METHODS OF USE” (PERMEON BIOLOGICS, INC., priority 2013, published 2015).
# B1: +2GFP-C6.5: +2GFP fused to C6.5 scFv; variant a or b not stated (protein)
# scFv: QVQLLQSGAELKKPGESLKISCKGSGYSFTSYWIAWVRQMPGKGLEYMGLIYPGDSDTKYSPSFQGQVTISVDKSVSTAYLQWSSLKPSDSAVYFCARHDVGYCSSSNCAKWPEYFQHWGQGTLVTVSSGGGGSGGGGSGGGGSQSVLTQPPSVSAAPGQKVTISCSGSSSNIGNNYVSWYQQLPGTAPKLLIYGHTNRPAGVPDRFSGSKSGTSASLAISGFRSEDEADYYCAAWDDSLSGWVFGGGTKLTVLGGHGHHHHHH
# modifications: left off: large carriers; small tags and cut ends
# Tests used:
# Format in all cases: cell-based
# [1] = system: MDA-MB-468 (Her2^Low) cells; assay: Flow cytometry uptake in mixed cell population, concentration series (Example 5); conditions: 2 h; for Median Fluorescence Values, Her2− GFP-C6.5: second set; for Median Fluorescence Values, MDA-MB-468 cells (Her2−) C6.5-GFP / Median Fluorescence Values, MDA-MB-468 cells (Her2−) GFP-C6.5: first set
# Experimental: (§1) The media were replaced with serum free media containing indicated concentrations of protein listed below and incubated for 2 h. Cells were washed 3×PBS, trypsinized, fixed with 4% PFA, stained with Her2 Ab-APC for 0.5 hour, washed with PBS and then analyzed by flow cytometry with detection of GFP.
# (§2) The tested proteins of the first and second sets of experiments were applied to the mixed cell population for two hours.
# (§3) The above data were also plotted in FIGS. 13A-13H to show the median fluorescence value minus background fluorescence of untreated cells (background adjusted fluorescence) (Y-axis) as a function of concentration (X-axis) for each of the tested proteins in this Example. Cellular uptake of the proteins was measured by GFP fluorescence. Her2 expression level was measured by using a Her2 antibody conjugated with allophycocyanin (APC). Gating was applied to the flow cytometry data to identify Her2^1′ versus Her2^high populations. […] The Her2^low profiles (diamond) are indicative of the profile of charged GFP alone. The Her2^high profiles (square) are indicative of the profile of the charged GFP in combination with the target-binding region—C6.5 scFv. The data of sfGFP-C6.5 on the Her2^high cells reflects the profile of the target-binding region (C6.5) by itself.
# [2] = system: MDA-MB-468 (Her2^Low) cells; assay: Flow cytometry uptake in mixed cell population, time course (Example 6); conditions: 0.1 μM
# Experimental: (§4) The media were replaced with serum free media containing 0.1 μM of protein listed below and incubated for 10 minutes, 30 minutes or 4 hours. Cells were washed 3×PBS, trypsinized, stained with Her2 Antibody-APC for 0.5 hours, washed with PBS and then analyzed by flow cytometry with detection of GFP.
# [3] = system: MDA-MB-468 (Her2^Low) cells; assay: Flow cytometry detection of internalized GFP protein (Example 4); conditions: 1 μM, 2 hours, serum free media
# Experimental: These two types of cells express different levels of Her2 protein (FIG. 8). […] MDA-MB-468 cells express very low levels of Her2 (referred to as Her2^Low) while AU565 cells express high levels of Her2 (referred to as Her2^high).
# The media were replaced with serum free media containing 1 μM of a protein listed below, and incubated for 2 hours. Cells were washed 3×PBS, trypsinized, fixed with 4% PFA, washed with PBS and then analyzed by flow cytometry with detection of GFP.
# Results: Flow cytometry analysis is indicative of the amount of protein internalized into the cells. FIGS. 9A and 9B show the flow cytometry data obtained for different tested samples at various conditions. The median fluorescence values obtained from the flow cytometry peak minus the median fluorescence values of untreated cells (background fluorescence) are shown in FIGS. 10A and 10B. See also Table 7. The first column indicates identifies the GFP-component of the construct used for the particular sample treatment. The second and third columns represents fluorescence in MDA-MB-468 cells following treatment with each of the GFP proteins alone (second column; examples of use of CPMs alone) or with each of the GFP-C6.5 fusion proteins (third column; examples of fusion proteins comprising a target-binding region and a CPM region). The fourth and fifth column fluorescence in AU565 cells following treatment with each of the GFP proteins alone (fourth column; examples of use of CPMs alone) or with each of the GFP-C6.5 fusion proteins (fifth column; examples of fusion proteins comprising a target-binding region and a CPM region).
# [4] = system: SKOV-3 cells (Her2^high); assay: Cellular uptake by fluorescence microscopy; conditions: 1 μM, 1 hour
# Experimental: These images were taken to assess cellular uptake of these GFP-containing proteins by fluorescence microscopy. The images shown are an overlay of phase contrast and GFP fluorescence images.
# In addition, SKOV-3 cells (Her2^high) were treated with 1 μM of proteins for 1 hour, and then images were taken to assess cellular uptake of GFP proteins by fluorescence microscopy (FIG. 11A).
# [5] = system: AU565 (Her2^high) cells; assay: Flow cytometry detection of internalized GFP protein (Example 4); conditions: 1 μM, 2 hours, serum free media
# [6] = system: AU565 (Her2^high) cells; assay: Flow cytometry uptake in mixed cell population, concentration series (Example 5); conditions: 2 h, first set
# Experimental: as §1, §2, §3
# [7] = system: AU565 (Her2^high) cells; assay: Flow cytometry uptake in mixed cell population, time course (Example 6); conditions: 0.1 μM
# Experimental: as §4
molecule,measurement,setting,value
"sfGFP-C6.5: fusion of superfolder GFP, (S4G)6 spacer, C6.5 anti-Her2 scFv, His6","Median Fluorescence Values, Her2− GFP-C6.5",[1]; 0.03 uM,"4,460"
same,"Median Fluorescence Values, Her2− GFP-C6.5",[1]; 0.1 uM,"4,824"
same,"Median Fluorescence Values, Her2− GFP-C6.5",[1]; 0.3 uM,"4,947"
same,"cellular uptake (flow cytometry with detection of GFP), Her2− GFP-C6.5",[2]; 10 min,"4,081"
same,"cellular uptake (flow cytometry with detection of GFP), Her2− GFP-C6.5",[2]; 30 min,"3,986"
same,"cellular uptake (flow cytometry with detection of GFP), Her2− GFP-C6.5",[2]; 4 h,"4,704"
same,"median fluorescence values, MDA-MB-468 (Her2^Low) GFP-C6.5",[3],"5,632"
"C6.5-+15GFP: fusion of N-terminal C6.5 scFv, (S4G)6 spacer, +15GFP, His6",cellular uptake by fluorescence microscopy,[4],internalized efficiently in the cells
same,"median fluorescence values, AU565 (Her2^high) GFP-C6.5",[5],"2,170,916"
same,"Median Fluorescence Values, MDA-MB-468 cells (Her2−) C6.5-GFP",[1]; 0.03 uM,"13,355"
same,"Median Fluorescence Values, MDA-MB-468 cells (Her2−) C6.5-GFP",[1]; 0.1 uM,"36,070"
same,"Median Fluorescence Values, MDA-MB-468 cells (Her2−) C6.5-GFP",[1]; 0.3 uM,"82,571"
same,"Median Fluorescence Values, MDA-MB-468 cells (Her2−) C6.5-GFP",[1]; 1 uM,"306,260"
same,"Median Fluorescence Values, AUS65 cells (Her2+) C6.5-GFP",[6]; 0.03 uM,"75,821"
same,"Median Fluorescence Values, AUS65 cells (Her2+) C6.5-GFP",[6]; 0.1 uM,"162,337"
same,"Median Fluorescence Values, AUS65 cells (Her2+) C6.5-GFP",[6]; 0.3 uM,"305,944"
same,"Median Fluorescence Values, AUS65 cells (Her2+) C6.5-GFP",[6]; 1 uM,"822,351"
same,"cellular uptake (flow cytometry with detection of GFP), Her2− C6.5-GFP",[2]; 10 min,"13,517"
same,"cellular uptake (flow cytometry with detection of GFP), Her2− C6.5-GFP",[2]; 30 min,"17,194"
same,"cellular uptake (flow cytometry with detection of GFP), Her2− C6.5-GFP",[2]; 4 h,"96,599"
same,"cellular uptake (flow cytometry with detection of GFP), Her2+ C6.5-GFP",[7]; 10 min,"37,044"
same,"cellular uptake (flow cytometry with detection of GFP), Her2+ C6.5-GFP",[7]; 30 min,"61,007"
same,"cellular uptake (flow cytometry with detection of GFP), Her2+ C6.5-GFP",[7]; 4 h,"184,844"
same,"median fluorescence values, MDA-MB-468 (Her2^Low) GFP-C6.5",[3],"767,627"
"+15GFP-C6.5: fusion of +15GFP, (S4G)6 spacer, C6.5 scFv, His6","median fluorescence values, AU565 (Her2^high) GFP-C6.5",[5],"413,838"
same,"Median Fluorescence Values, MDA-MB-468 cells (Her2−) GFP-C6.5",[1]; 0.03 uM,"13,012"
same,"Median Fluorescence Values, MDA-MB-468 cells (Her2−) GFP-C6.5",[1]; 0.1 uM,"36,343"
same,"Median Fluorescence Values, MDA-MB-468 cells (Her2−) GFP-C6.5",[1]; 0.3 uM,"76,116"
same,"Median Fluorescence Values, MDA-MB-468 cells (Her2−) GFP-C6.5",[1]; 1 uM,"155,734"
same,"Median Fluorescence Values, AUS65 cells (Her2+) GFP-C6.5",[6]; 0.03 uM,"37,663"
same,"Median Fluorescence Values, AUS65 cells (Her2+) GFP-C6.5",[6]; 0.1 uM,"74,673"
same,"Median Fluorescence Values, AUS65 cells (Her2+) GFP-C6.5",[6]; 0.3 uM,"128,374"
same,"Median Fluorescence Values, AUS65 cells (Her2+) GFP-C6.5",[6]; 1 uM,"180,065"
same,"cellular uptake (flow cytometry with detection of GFP), Her2− GFP-C6.5",[2]; 10 min,"10,665"
same,"cellular uptake (flow cytometry with detection of GFP), Her2− GFP-C6.5",[2]; 30 min,"22,262"
same,"cellular uptake (flow cytometry with detection of GFP), Her2− GFP-C6.5",[2]; 4 h,"144,923"
same,"cellular uptake (flow cytometry with detection of GFP), Her2+ GFP-C6.5",[7]; 10 min,"18,606"
same,"cellular uptake (flow cytometry with detection of GFP), Her2+ GFP-C6.5",[7]; 30 min,"35,981"
same,"cellular uptake (flow cytometry with detection of GFP), Her2+ GFP-C6.5",[7]; 4 h,"148,261"
same,"median fluorescence values, MDA-MB-468 (Her2^Low) GFP-C6.5",[3],"313,629"
B1,cellular uptake by fluorescence microscopy,[4],bound to SKOV-3 cells through Her2 but did not internalize in the cells
